{
  "source": "patent EP2767286B1",
  "about": "“ORAL PHARMACEUTICAL COMPOSITION FOR THE TREATMENT OF INFLAMMATORY GASTROINTESTINAL DISEASES” (Obshestvo S Ogranichennoj Otvetstvennostju \"CytoNIR\", priority 2011, dated 2018)",
  "key": {"[1]": {"system": "nicht durch Heliobacter pylori assoziierte Magengeschwüren", "settings": "peroral, in complex therapy; cited from earlier work"}, "[2]": {"system": "chronischen Duodenalulkus durch Heliobacter pylori", "settings": "peroral, in complex therapy; cited from earlier work"}, "[3]": {"system": "Modell des Indometacin-Magengeschwürs", "assay": "Gastroprotective activity in the indometacin gastric ulcer model", "type": "in vivo, Ratten der Linie Sprague-Dawley", "from_the_text": "Beispiel 1 Gastroprotektive Aktivität der erfindungsgemäßen pharmazeutischen Zubereitung bei Verabreichung am Modell einer Geschwürbildung.\nDie experimentelle Forschung wurde an 50 männlichen Auszucht-Ratten der Linie Sprague-Dawley mit einem Körpergewicht von 180 - 200 g durchgeführt. Vor den Versuchen wurden die Tiere einer 14 Tage langen Quarantäne und Randomisierung unterzogen. Die Tiere wurden unter Vivarium-Bedingungen mit genormter Nahrungsration unterhalten.\nDie Tiere wurden in folgende Gruppen aufgeteilt: • Ratten, die mit einem ulzerogenen Präparat (Indometacin) und Kochsalzlösung (2 ml/kg) behandelt wurden; diese Tiere bilden die Vergleichsgruppe (Referenzgruppe); • Ratten, die mit einem ulzerogenen Präparat intragastrisch und einem Vergleichspräparat (Sucralfate in der Dosis von 200,0 mg/kg) behandelt wurden; • Ratten, die mit einem ulzerogenen Präparat intragastrisch und mit der pharmazeutischen Zubereitung (10,0 µg/kg) behandelt wurden; • Ratten, die mit einem ulzerogenen Präparat intragastrisch und mit der pharmazeutischen Zubereitung (0,1 µg/kg) behandelt wurden. physiologischen Lösung verabreicht. Die pharmazeutische Zubereitung und das Vergleichspräparat in den oben genannten Mengen wurden im Laufe von 7 Tagen ab dem Zeitpunkt der Simulation des Indometacin-Magengeschwürs (Heilschema) intragastrisch verabreicht. Die Tiere der Referenzgruppe wurden mit Äquivolumen-Mengen des Lösemittels unter entsprechenden Regimes behandelt.\nDas Körpergewicht der Tiere wurde im Zeitablauf ermittelt. 24 Stunden nach Abschluss dieser Behandlung wurden die Tiere der Euthanasie mittels prompter Dekapitation unter Blutabnahme unterzogen. Die Mägen wurden entnommen, an der Minorseite aufgeschnitten und mit kalter Kochsalzlösung gewaschen. Die Destruktionszahl wurde makroskopisch mit Hilfe von einem Binokular unter heller Vertikalbeleuchtung ermittelt. Die Destruktionen wurden je nach ihrem Flächeninhalt wie folgt differenziert: Fein (punktförmig, Größe von unter 1 mm), mittelmäßig (rund und streifenförmig, ab 1 mm) und groß (über 1- 2 mm). Das Vorhandensein von Blut an der Destruktionsunterkante wurde anhand der Peroxydase-Reaktion mit Orthodianisidin-Substrat unter Kennfärben der Schleimhaut mit Methylenblau erkannt. Dabei wurde die hämhaltige Oberfläche braun-schwarz im bläulichen Hintergrund der intakten Schleimhaut gefärbt.\nDie Verteilung der Tiere in der Gruppe mit Schleimhautfehlern wurde je nach Grad der Ausprägung der makroskopischen Änderungen erfasst. Der Paul's Index (PI) wurde wie folgt berechnet: durchschnittliche Geschwürmenge x % der Tiere mit Geschwüren / 100 %. Die gastroprotektive Aktivität (GA) wurde als PI / PI Verhältnis zwischen der Referenzgruppe und einer Versuchsgruppe berechnet. Das zu untersuchende Präparat wurde als aktiv beurteilt, wenn GA 2 und mehr betrug.\nDie statistische Datenverarbeitung wurde anhand der handelsüblichen Software Microsoft Excel durchgeführt. Die Relevanz der Änderungen wurde unter Anwendung des Student t-Tests berechnet."}, "[4]": {"system": "Versuchsmodell der toxischen Hepatitis", "assay": "Hepatoprotective activity in the experimental model of toxic hepatitis (TCM)", "type": "in vivo, Ratten der Linie Sprague-Dawley", "settings": "100 mg/kg, blood; for APh: alkalische Phosphatase", "from_the_text": "Beispiel 2 Bewertung der hepatoprotektiven Aktivität der erfindungsgemäßen pharmazeutischen Zubereitung bei Verabreichung am Versuchsmodell der toxischen Hepatitis.\nJede Versuchsgruppe zählte 10 Tiere. Die zu untersuchenden Präparate wurden den Ratten in Form von Wasserlösung intragastrisch mit einer atraumatischen Metallsonde eingeführt. Die Referenztiere bekamen Reinwasser verabreicht.\nAls Vergleichspräparat wurde bei der Untersuchung der hepatoprotektiven Aktivität das Präparat Silibinin in Kapseln, Fabrikat Rosa-Phytopharm (Bulgarien) verwendet. in der gleichen Menge wie das Volumen der hepatoprotektiven Mittel behandelt. Die hepatoprotektive Aktivität wurde 7 und 14 Tage ab Anfang der Behandlung bewertet. Im Blutserum wurden die Aktivität von Aspartat-Amino-transferase (ASAT), Alanin-Aminotransferase (ALT), alkalische Phosphatase sowie der Cholesterinspiegel, Triglyzeridespiegel ermittelt. […]\nDie statistische Datenverarbeitung wurde anhand der handelsüblichen Software Microsoft Excel durchgeführt. Die Unterschiede zwischen den Stichproben wurden anhand des Student t-Tests bewertet. […] Die Angaben sind in der Tabelle 3 aufgeführt. Tabelle 3. […] Tag […]"}},
  "note": "Marks after values point to notes of the source that are not given here. Ends that are not written are not given here.",
  "data": [
    {"compound": "TEKRRETVEREKE [Gepon, synthetischer Peptid-Immunmodulator]", "values": [
      {"measurement": "Regeneration, Vernarbungszeit, zellgebundene Immunität", "setting": "[1]", "value": "Beschleunigung der Regenerationsvorgänge, zur Abkürzung der Vernarbungszeit des ulzerösen Defekts und zur Verbesserung der Kenndaten der zellgebundenen Immunität"}
    ]},
    {"compound": "N-Acetyl- Glukosaminyl- 1 -4-N-Acetylmuramid- L-Alanyl- D-Isoglutamin [Licopid]", "values": [
      {"measurement": "Eradikation von Heliobacter pylori und Wiederherstellung der Magenschleimhaut", "setting": "[2]", "value": "hohe Effizienz hinsichtlich der Eradikation von Heliobacter pylori"}
    ]},
    {"compound": "Sucralfate", "values": [
      {"measurement": "Anzahl der Geschwüre (X ± m) Fein", "setting": "[3]; 200 mg/kg intragastric, 7 days", "value": "8±2"},
      {"measurement": "Anzahl der Geschwüre (X ± m) Groß", "setting": "[3]; 200 mg/kg intragastric, 7 days", "value": "5±2"},
      {"measurement": "Anzahl der Geschwüre (X ± m) Mittelmäßig", "setting": "[3]; 200 mg/kg intragastric, 7 days", "value": "4±1"},
      {"measurement": "Tiere mit Geschwüren", "setting": "[3]; 200 mg/kg intragastric, 7 days", "value": 100, "unit": "%"},
      {"measurement": "PI", "setting": "[3]; 200 mg/kg intragastric, 7 days, Paul's Index", "value": "16,9*"},
      {"measurement": "GA", "setting": "[3]; 200 mg/kg intragastric, 7 days, gastroprotektive Aktivität, PI reference / PI test group, active if 2 or more", "value": "2,05"},
      {"measurement": "Durchschnitt (X±m)", "setting": "[3]; 200 mg/kg intragastric, 7 days, mean number of ulcers", "value": "17±4"},
      {"measurement": "Körpergewichtsverlauf (M±m)", "setting": "[3]; 200 mg/kg intragastric, 3 Tage", "value": "186 ± 4", "unit": "g"},
      {"measurement": "Körpergewichtsverlauf (M±m)", "setting": "[3]; 200 mg/kg intragastric, 7 Tage", "value": "169 ± 3", "unit": "g"},
      {"measurement": "Körpergewichtsverlauf (M±m)", "setting": "[3]; 200 mg/kg intragastric, Hintergrund (baseline)", "value": "198 ± 3", "unit": "g"},
      {"measurement": "Hyperämie der Schleimhaut, Anteil der Tiere", "setting": "[3]; Sucralfate 200 mg/kg", "value": 40, "unit": "%"}
    ]},
    {"compound": "COc1cc(C2Oc3cc([C@H]4Oc5cc(O)cc(O)c5C(=O)[C@@H]4O)ccc3OC2CO)ccc1O", "note": "(some centres unmarked) [Silibinin]", "values": [
      {"measurement": "APh", "setting": "[4]; 7. Behandlungstag", "value": "469±30", "unit": "nMol/s x L"},
      {"measurement": "ALAT", "setting": "[4]; 7. Behandlungstag", "value": "1,56±0,12 mMol/Einheiten x L"},
      {"measurement": "ASAT", "setting": "[4]; 7. Behandlungstag", "value": "1,28±0,15 mMol/Einheiten x L"},
      {"measurement": "Cholesterin", "setting": "[4]; 7. Behandlungstag", "value": "3,60±0,18 mMol/ L"},
      {"measurement": "Triglyzeride", "setting": "[4]; 7. Behandlungstag", "value": "2,44±0,12 mMol/ L"},
      {"measurement": "APh", "setting": "[4]; 14. Behandlungstag", "value": "288±17", "unit": "nMol/s x L"},
      {"measurement": "ALAT", "setting": "[4]; 14. Behandlungstag", "value": "0,99±0,16 mMol/Einheiten x L"},
      {"measurement": "ASAT", "setting": "[4]; 14. Behandlungstag", "value": "0,75±0,11 mMol/Einheiten x L"},
      {"measurement": "Cholesterin", "setting": "[4]; 14. Behandlungstag", "value": "1,99±0,12 mMol/ L"},
      {"measurement": "Triglyzeride", "setting": "[4]; 14. Behandlungstag", "value": "1,48±0,14 mMol/ L"}
    ]}
  ]
}
